# Key:
# Type in all cases: cell-based
# [1] = tested on: TNFα release from THP-1 cells; assay: Primary screen (Example 1b): LPS-stimulated TNFα release from THP-1 cells, overnight pre-incubation, HTRF; details: Homo sapiens, overnight with inhibitor, 100 ng/mL LPS, 3 h, normalised to 10 μM Batimastat
# Procedure: (§1) Two separate screens to identify novel small molecule inhibitors of iRhom2/ADAM17 activity were developed. […] Therefore, the primary screen for small molecule inhibitors of iRhom2/ADAM17 was a screen for inhibitors that blocked the release of TNFα from LPS-stimulated THP-1 human myeloid cells, a process that depends on iRhom2 and ADAM17. Since the release of TNFα from THP-1 cells can be blocked at many stages of the LPS/TLR4/iRhom2/ADAM17 pathway, a secondary screen was performed for another iRhom2/ADAM17 selective substrate, Kit-ligand 2 (KL-2) (Maretzky T et al. (July 2013), “iRhom2 controls the substrate selectivity of stimulated ADAM17-dependent ectodomain shedding”, PNAS 110(28): 11433-11438) in a different human cell type, human embryonic kidney cells (HEK 293).
# THP-1 cells were plated in low volume 384 wells (10,000 cells per well in 12.6 μL RPMI medium) together with inhibitors or 10 μM BB94 and incubated over night. The next day, TNFα shedding was initiated by stimulation of THP-1 cells with 100 ng/mL LPS (1.8 μL of an 800 ng/mL LPS stock) for 3 hrs at 37° C. The extent of released TNFα was detected with the corresponding HTRF antibodies labeled with europium cryptate (donor) and d2 (acceptor). The HTRF signal was generated by proximity of europium cryptate and d2. All detection reagents were purchased from Cisbio. TNFα detection was performed according to the manufacturer's protocol (Product Insert for Cisbio TNFα (h) Kit Part #62HTNFAPEG & 62HTNFAPEH;
# Low volume 384 well plates were pre-coated with small molecule library compounds for a final concentration of 20 μM in a 15 μL reaction, or 0.75 μL of 200 μM stock of BB94 in 5% DMSO (final concentration 0.25%). 12.6 μL of cell suspension [8E5/mL; 10,000 cells/well; culture RPMI medium] and pre-incubated at 37° C., 5% CO2, over night. The next day, 1.8 μL of an 800 ng/mL LPS stock was added [final concentration 100 ng/mL in 15 μL assay] and the cells were incubated at 37° C., 5% CO2, for 3 h. Subsequently, 3 μL of the HTRF-mix [used at 1:3 dilution of cisbio HTRF human TNF] was added and the plates were incubated for an additional 2 hrs at 25° C. After an incubation at room temperature for 2 h, the HTRF readout was performed. Then data evaluation for normalization against the 10 μM Batimastat control (=100% […]) was applied.
# [2] = tested on: KL2 release from HEK-293 cells; assay: Secondary screen (Example 3b): PMA-stimulated KL2 release from HEK-293 cells, AP readout; details: Homo sapiens, HEK293, HEK-293 cells expressing KL2-AP, PMA 100 ng/mL, 2 h, read-out: Secondary Screen IC50 KitL2
# Procedure: as §1
# (§2) Expression plasmids for alkaline phosphatase (AP)-fused human KL2 and TGFα had been previously designed and generated through gene synthesis followed by subcloning into the pcDNA3.1(+)/Hygro expression vector. […] Subsequently, DNA amplifications were performed to obtain sufficient amounts of the expression vectors. The quality of DNA and gene sequences were confirmed through restriction digest and Sanger sequencing. In parallel, cell culture of HEK-293 cells was initiated. Master and working cell banks were prepared, scaled up and transfected with the respective constructs by electroporation. During cell culturing, cell density and viability were monitored to ensure optimal conditions for the transfections. After PMA stimulation, AP-coupled KL2 or TGFα were detected by measurement of AP activity in the supernatant.
# (§3) After electroporation, cells were further cultured in presence of selection antibiotics, hygromycin B, to generate stably transfected polyclonal cell pools. For both assays, KL2 and TGFα shedding, the respective selected pool turned out to be suitable. Final assay conditions were determined for the selected pools. For all experiments, batimastat (BB94, 10 μM) was used as positive control for full inhibition of KL2 or TGFα shedding.
# (§4) The wells of sterile 384-well flat bottom clear plates for KL2-AP assays were coated with 10 μL of 0.1 mg/mL poly-d-lysine for 3-4 hr at 25° C. or overnight at 4° C., then washed 2× with PBS and patted dry. 60 μL of cells (40,000/well) were added to the sterile 384-well plate and incubated in Optimem (with 2% FCS and 1% Pen-strep) overnight at 37° C. (5% CO2). After incubation overnight, 55 μL medium were removed with a BioTek EL406 and 10 μL of prediluted compounds were added to the cells for a final concentration of 20 μM. After incubation for 15 min, 15 μL of PMA (100 ng/mL final conc.) were added. The cells were incubated for 2 h at 37° C. (5% CO2). Then, the plates were centrifuged for 5 min at 1000 rpm and 3 μL of the supernatant was transferred to a fresh 384 well plate and 9 μL of AP Balance Buffer was added per well. 12 μL of pNPP p-nitrophenyl phosphate (final 1 M pNPP) was added. AP reaction was performed for 1 h at 37° C. The reaction was stopped by addition of 12 μL of NaOH (1 M final conc.), the plates were centrifuged to remove air bubbles and the absorbance of pNP was measured at 405 nm.
# [3] = tested on: TGFα release from HEK-293 cells; assay: Counter screen (Example 4b): PMA-stimulated TGFα release from HEK-293 cells, AP readout; details: Homo sapiens, HEK293, HEK-293 cells expressing TGFα-AP, PMA 100 ng/mL, 2 h
# Procedure: (§5) A tertiary counterscreen was also performed to monitor the release of TGFα, which is a substrate of iRhom1/ADAM17 and iRhom2/ADAM17, so its release should not be blocked by an iRhom2-selective inhibitor (Maretzky T et al. (July 2013), “iRhom2 controls the substrate selectivity of stimulated ADAM17-dependent ectodomain shedding”, PNAS 110(28): 11433-11438; and Li X et al. (May 2015), “iRhoms 1 and 2 are essential upstream regulators of ADAM17-dependent EGFR signaling”, PNAS 112(19): 6080-6085).
# as §2, §3
# as §4, with “for TGF-AP” for “for KL2-AP”, “cells (20,000/well)” for “cells (40,000/well)”, “and 12” for “and 3”, “well plate.” for “well plate and 9 μL of AP Balance Buffer was added per well.”
# [4] = tested on: TNFα release from THP-1 cells; assay: Primary screen (Example 1a): LPS-stimulated TNFα release from THP-1 cells, HTRF; details: Homo sapiens, 100 ng/mL LPS, 3 h, normalised to 50 μM Batimastat, read-out: Primary Screen XC50 TNFα
# Procedure: as §1
# THP-1 cells were plated in 384 or 1,536 wells and transferred on the ultra-high throughput screening (uHTS) platform Mark III, and TNFα shedding was initiated by LPS stimulation of THP-1 cells. The extent of released TNFα was detected with the corresponding HTRF antibodies labeled with europium cryptate (donor) and d2 (acceptor). The HTRF signal was generated by proximity of europium cryptate and d2. All detection reagents were purchased from Cisbio. TNFα detection was performed according to the manufacturer's protocol (Product Insert for Cisbio TNFα (h) Kit Part #62HTNFAPEG & 62HTNFAPEH;
# 7.5 nL compound and controls in DMSO [10 μM in assay; 0.25% DMSO in 3 [μL Assay] were dissolved in 2 μL cell suspension [2.4E6/mL; 4800 cells/well; culture w/o PenStrep], pre-incubated at 37° C., 5% CO2, for 15 min with 1 μL LPS [100 ng/mL in 3 μL assay]. The cells were incubated at 37° C., 5% CO2, for 3 h with 2 μL of the HTRF-mix [1:300 f.c.]. After an incubation at room temperature for 2 h or longer, the HTRF readout was performed. Then data evaluation for normalization against the 50 μM Batimastat control (=100% […]) was applied. As an additional control, 300 nM Batimastat was used to monitor performance of cells and assay sensitivity over time.
# [5] = tested on: KL2 release from HEK-293 cells; assay: Secondary screen (Example 3a): PMA-stimulated KL2 release from HEK-293 cells, AP readout; details: Homo sapiens, HEK293, HEK-293 cells expressing KL2-AP, PMA 500 ng/mL, 2 h, read-out: Secondary Screen XC50 KL2
# Procedure: as §1
# (§6) First, expression plasmids for alkaline phosphatase (AP)-fused KL2 and TGFα were designed and generated through gene synthesis followed by subcloning into the pcDNA3.1(+)/Hygro expression vector. […] Subsequently, DNA amplifications were performed to obtain sufficient amounts of the expression vectors. The quality of DNA and gene sequences were confirmed through restriction digest and Sanger sequencing. In parallel, cell culture of THP-1 and HEK-293 cells was initiated. Master and working cell banks were prepared. Both cell lines were scaled up and transfected with the respective constructs by electroporation. During cell culturing, cell density and viability were monitored to ensure optimal conditions for the transfections. After PMA stimulation, AP-coupled KL2 or TGFα were detected by measurement of AP activity in the supernatant. […] In contrast, THP-1 cells turned out to be not a suitable transfection host resulting in a loss of cell viability after transfection. The decision was made to proceed with HEK-293 for both selectivity assays and to establish polyclonal cell lines stably expressing AP-coupled KL2 or TGFα.
# as §3, with “(30” for “(BB94, 10”
# (§7) 60 μL of cells (40,000/well) were added to a sterile 384-well plate. After incubation overnight at 37° C. (5% CO2), 50 μL medium were removed and 20 μL of prediluted compounds were added to the cells. After incubation for 15 min, 20 μL of PMA (500 ng/mL final conc.) were added. The cells were incubated for 2 h at 37° C. (5% CO2). Then, 20 μL of the supernatant was transferred to a fresh plate and 20 μL of pNPP (5 mM final conc.) was added. AP reaction was performed for 1 h at RT. The reaction was stopped by addition of 20 μL of NaOH (1 M final conc.) and the absorbance of pNP was measured at 405 nm.
# [6] = tested on: TGFα release from HEK-293 cells; assay: Counter screen (Example 4a): PMA-stimulated TGFα release from HEK-293 cells, AP readout; details: Homo sapiens, HEK293, HEK-293 cells expressing TGFα-AP, PMA 100 ng/mL, 2 h, read-out: Counter Screen XC50 TGFα
# Procedure: as §5, §6
# as §3, with “(30” for “(BB94, 10”
# as §7, with “of cells (20,000/well) were added” for “of cells (40,000/well) were added”, “of PMA (100 ng/mL final” for “of PMA (500 ng/mL final”, “was added. The AP reaction” for “was added. AP reaction”
SMILES,IC50 [1],IC50 [2],IC50 [3],IC50 [4],IC50 [5],IC50 [6]
Cc1ccsc1C1Nc2ccc3ccccc3c2C2=C1C(=O)CCC2 (stereo not drawn) [Compound 45],> 32 µM,28 µM,> 40 µM,,,
O=C(NCCc1cccnc1)c1ccc(-c2cc(-c3ccc(N4CCCCC4)cc3)n[nH]2)cc1 [Compound 44],10.8 µM,> 40 µM,> 40 µM,,,
O=C(c1c(Cl)cccc1Cl)N1CCC(Cc2ccc3c(c2)OCO3)CC1 [Compound 43],3.97 µM,35.2 µM,> 40 µM,,,
O=C1Nc2ccccc2/C1=N\Nc1nc(Nc2ccccc2)nc(Nc2ccccc2)n1 [Compound 46],2.72 µM,11.1 µM,> 40 µM,,,
O=C(NC1CCCCCCC1)C1CCCN(c2nc3ccc(Br)cc3[nH]2)C1 (stereo not drawn) [Compound 47],2.41 µM,5.52 µM,> 40 µM,,,
Cc1cc(NCCCn2ccnc2)n2ncc(-c3ccc(Cl)cc3)c2n1 [Compound 48],13.2 µM,> 40 µM,> 40 µM,,,
COc1cccc(OC)c1C(=O)N1CCN(Cc2cccc3ccccc23)CC1 [Compound 10],,,,22.6 µM,67.7 µM,> 128 µM
Cc1cc(C)c2nc(N3CCNCC3)sc2c1 [Compound 49],13.2 µM,> 40 µM,> 40 µM,,,
Cc1ccccc1Nc1nc(NCCCO)nc2c1cnn2-c1ccccc1 [Compound 50],10.9 µM,16.1 µM,> 40 µM,,,
c1ccc(-c2ncn(CCc3c[nH]cn3)c2-c2ccncc2)cc1 [Compound 36],,,,19 µM,> 128 µM,> 128 µM
Nc1cccc(-c2cnc3ccc(NCc4cccs4)nn23)c1 [Compound 21],,,,1.3 µM,120 µM,> 128 µM
CCC1CN(C(=O)c2ccc3c(c2)CCO3)CCC(=O)N1Cc1ccccc1 (stereo not drawn) [Compound 16],,,,15.4 µM,> 128 µM,> 128 µM

# Reference: US20240390355A1, “IRHOM2 INHIBITORS AND USES THEREOF” (NEW YORK SOCIETY FOR THE RELIEF OF THE RUPTURED AND …, priority 2021, published 2024)
